Converted amounts (≈) assume the structure as drawn.
How the values were obtained:
epidermis cell turnover = assay: cell turnover rate (dansyl chloride); format: in vivo, human
Description: Two PX compounds PX-11 and PX-13 were evaluated in a cream formulation prepared under GMP. The chemicals were formulated into a bland cream and evaluated in the following human or mouse skin tests: (1) occluded patch test for irritation; (2) cell turnover rate; (3) transepidermal water loss; (4) skin moisturization; and (5) reduction in erythema after induced sunburn. The human skin tests were conducted on three volunteer female subjects, ages 29-32; a cream base with no added active was included as a control, while the untreated skin served as an additional basis for evaluation. Sunburn tests were performed on a total of 30 hairless albino mice. 2. Cell turnover rate: This parameter was measured by adsorption of dansyl chloride, in which 3% dansyl chloride was incorporated into petrolatum. This salve was applied over a 2.5 cm diameter circular area in the upper arm and a patch applied. 24 hours later the patch was removed. The intensity of dansyl chloride fluorescence was indicative of the cell turnover rate in the epidermis.

[1] = system: ultraviolet-induced erythema; assay: protection against ultraviolet-induced erythema; format: in vivo, hairless albino mice; settings: 1 = Best, 4 = Worst
Description: The human skin tests were conducted on three volunteer female subjects, ages 29-32; a cream base with no added active was included as a control, while the untreated skin served as an additional basis for evaluation. Sunburn tests were performed on a total of 30 hairless albino mice.
5.Protection against ultraviolet-induced ervthema. The protection against ultraviolet-induced erythema (i.e., the burn and irritation produced after exposure to ultraviolet radiation), was measured by first irradiating 12 mice with destructive 3130 angstrom (Å) rays, applying the creams, and then evaluating the skin cells for erythema.

[2] = system: purified human disc PLA2 induced paw edema; assay: human disc PLA2-induced mouse paw edema; format: in vivo
Description: Edema was induced by injection of 1 ug of purified human disc PLA2 into the mouse footpad. PX-13 was administered either by gavage or intraperitoneally (IP) 60 min prior to enzyme challenge. Forty-five min after enzyme injection, the animals were sacrificed and the control and injected paws were removed and weighed to assess edema.

[3] = system: rat dorsal root ganglion cells; assay: cultured rat dorsal root ganglion cells exposed to snake venom PLA2; format: cell-based; settings: 1-3 umols/min/mg for 60 min
[4] = system: human NP-homogenate induced paw edema; assay: nucleus pulposus (NP)-induced mouse paw edema; format: in vivo
Description: Human NP-homogenate was prepared according to the following protocol and stored frozen until use. Human vertebral discs were thawed and the tissue pieces were washed twice with isotonic saline. Tissue samples were homogenized in a minimum volume of isotonic saline using a Brinkman homogenizer. This homogenate was filtered through two layers of cheesecloth and the resultant filtrate was subjected to Dounce homogenization. This homogenate was again filtered through two layers of cheesecloth and the filtrate was capable of passing through a 26-gauge needle; 50 ul of the filtrate was administered to each mouse paw.
The filtrate contained 1.57 mg/ml of protein and its PLA2 activity was 12.8% hydrolysis of 10 nmols of E.coli phospholipid/10 ul filtrate/30 min. incubation at 37° C. Therefore, each mouse paw received 78.5 ug NP filtrate. This sample of 78,500 ng total protein contained approximately 4.3 ng NP PLA2 protein. By comparison, we use 500-2000 ng of highly purified PLA2 to induce edema in this mouse model; and under these experimental conditions the maximal edema achieved is 160% of the contralateral paw minus 4-7% edema due to saline injection alone.
The data are expressed as percent of contralateral paw and as percent of maximal edema achieved with purified PLA2. Fifty ul (78.5 ug) was injected into the paw 30 min. after the mice were treated with PX-13 in HEPES administered IP or by gavage at 30 or 60 mg/kg. After 3 hrs,the paws were excised and weighed.

[5] = molecular target: T1, purified human disc type II, PLA2 (Homo sapiens, UniProt P14555); assay: inhibition of purified human disc type II PLA2; format: biochemical
T1 construct: the purified human disc type II, PLA2; from tissue; host or cells: human vertebral (herniated) disc
T1 sequence (P14555 21-144): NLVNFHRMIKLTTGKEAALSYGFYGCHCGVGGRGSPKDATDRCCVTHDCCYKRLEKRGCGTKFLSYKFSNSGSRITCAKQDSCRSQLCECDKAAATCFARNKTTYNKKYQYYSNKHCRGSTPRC
Description: Both PX-13 and PX-18 inhibit the purified human disc type II, PLA2. PLA2 activity was measured as described in Franson et al., Prostaglandins, Leukotrienes and Essential Fatty Acids, 43:63-70, 1991, which is herein incorporated by reference in its entirety.

[6] = small bowel storage in perfusate solution, tissue weight; design: species or system rat; settings: 24 and 48 hours in the perfusate solution
Description: These drugs were also tested for their ability to enhance the preservation of tissues stored for subsequent transplantation. […] The graft was then transplanted into rats with or without intravenous (IV) infusion of 20 mg/kg PX-13 or mepacrine at the time of transplantation.

clone W2 (P.falciparum) = assay: 3H-hypoxanthine incorporation, P.falciparum clone W2; format: cell-based; settings: Plasmodium falciparum, W2; chloroquine resistant, mefloquine sensitive clone, RBC culture; read-out: IC50 growth
platelets = assay: platelet aggregation; format: cell-based; settings: 25-μM dose
Source text: (§1) Applicants have also observed that PX-13 inhibited serotonin release by thrombin-stimulated platelets. This observation supports the contention that the PX compounds of the present invention may block release of inflammatory mediators in the coagulation cascade. This observation also supports the use of PX compounds to inhibit thrombin-induced platelet aggregation and to act as anti-clotting agents.

[7] = system: thrombin-stimulated platelets; assay: serotonin release by thrombin-stimulated platelets; format: cell-based
Source text: as §1

mice = assay: acute toxicity (LD50 study), single IP dose; format: in vivo
Description: An LD50 study was conducted to determine a lethal dose for PX-13 suspended in HEPES buffer at a pH of 7.4. A single IP dose of 50, 100, 200 or 400 mg/kg was administered to mice (n=6 per group). […] No necropsy was performed.

[8] = therapeutic index LD50/ED50

CCCCCCCC/C=C\CCCCCCCC(=O)OCC(COC(=O)CCCCCCC/C=C\CCCCCCCC)(COC(=O)CCCCCCC/C=C\CCCCCCCC)NCCS(=O)(=O)O [PX-13, 2-[Tris(oleoyloxymethyl)methylamino]-1-ethanesulfonic acid]
Days to Cell Renewal Treated (epidermis cell turnover; cream-treated skin, upper arm): 21.6 days | % Change in Cell Turnover Time (epidermis cell turnover; treated vs untreated skin): −29% | Post-Radiation Erythema Ranking Mean ([1]; Mean): 4.7 | Post-Radiation Erythema Ranking ([1]; Subject 3): 4 | Percent Protection ([2]; 20 mg/kg gavage, 60 min prior to enzyme, paws weighed 45 min after): 33% | Percent Protection ([2]; 40 mg/kg IP): 48% | Percent Protection ([2]; 40 mg/kg gavage): 55% | Percent Protection ([2]; 60 mg/kg gavage): 63% | protection against toxicity of purified snake venom PLA2 [3]: protected | Percent Edema ([4]; Gavage 30 mg/kg): 122 ± 5.6% | Percent Edema ([4]; Gavage 60 mg/kg): 118 ± 2.0% | Percent of Maximal ([4]; Gavage 60 mg/kg): 22% | Percent Inhibition ([4]; Gavage 60 mg/kg, 60 mg/kg): 36% | Percent Inhibition ([4]; IP 30 mg/kg): 24% | Percent of Maximal ([4]; IP 30 mg/kg, maximal edema with purified PLA2 = 54%): 26% | Percent Edema ([4]; IP 30 mg/kg, percent of contralateral paw, 3 hrs): 120 ± 2.0% | Percent Edema ([4]; IP 60 mg/kg): 115 ± 1.6% | Percent of Maximal ([4]; IP 60 mg/kg): 17% | Percent Inhibition ([4]; IP 60 mg/kg, 60 mg/kg): 50% | IC50 [5]: 2500 nM | weight of the tissues after storage [6]: reduced weight | IC50 (clone W2 (P.falciparum)): 13 µg/mL (≈ 12.7 µM) | platelet aggregation (platelets): inhibited | serotonin release [7]: inhibited | deaths at 144 hrs (mice; 400 mg/kg group, n=6): one animal in the 400 mg/kg group died | tolerability (mice; mouse, in vivo): extremely well tolerated | therapeutic index (LD50/ED50) [8]: a large positive number
